Test results reported in patent US7138361B2, “Herbicidal heterocycles” (E. I. du Pont de Nemours and Company, priority 2000, dated 2006).

Columns and labels:
Format in all cases: in vivo
[1] = test system: Sunflower; assay: Test C preemergence; details: Rate 250 g/ha, visual evaluation after 12 to 14 days
[2] = test system: crabgrass (Digitaria sanguinalis); assay: Test B postemergence; details: 13 to 15 days
Method in brief: (§1)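 Ratings on a 0 to 100 visual scale (100 complete control) compare treated plants with controls 13 to 15 days after application. Treatments were pre- or postemergence sprays of compound in non-phytotoxic solvent with surfactant.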

[3] = test system: wild oat (Avena fatua); assay: Test B postemergence; details: 13 to 15 days
Method in brief: as §1

[4] = test system: lambsquarters (Chenopodium album); assay: Test B postemergence; details: 13 to 15 days
Method in brief: as §1

[5] = test system: cocklebur (Xanthium strumarium); assay: Test B postemergence; details: 13 to 15 days
Method in brief: as §1

[6] = test system: Nightshade; assay: Test C preemergence
[7] = test system: pigweed (Amaranthus retroflexus); assay: Test C preemergence; details: for Plant response rating (0 to 100), Pigweed: Rate 250 g/ha, visual evaluation after 12 to 14 days
Method in brief: (§2)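 Test chemicals, formulated in a non-phytotoxic solvent mixture with surfactant, were applied preemergence to planted seeds or postemergence to plants 2 to 18 cm tall (1- to 4-leaf stage). After 12 to 14 days in a greenhouse, injury was visually rated against untreated controls on a 0–100 scale.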

[8] = test system: woolly cupgrass (Eriochloa villosa); assay: Test C preemergence; details: for Plant response rating (0 to 100), Cupgrass, Woolly: Rate 250 g/ha, visual evaluation after 12 to 14 days
Method in brief: as §2

[9] = test system: bermudagrass (Cynodon dactylon); assay: Test C preemergence; details: for Plant response rating (0 to 100 where 0 is no effect and 100 is complete control), Bermudagrass: Rate 250 g/ha, visual evaluation after 12 to 14 days
Method in brief: as §2

[10] = test system: soybean (Glycine max); assay: Test C preemergence; details: for Plant response rating (0 to 100), Soybean: Rate 250 g/ha, visual evaluation after 12 to 14 days
Method in brief: as §2

[11] = test system: velvetleaf (Abutilon theophrasti); assay: Test C preemergence; details: for Plant response rating (0 to 100), Velvetleaf: Rate 250 g/ha, visual evaluation after 12 to 14 days
Method in brief: as §2

[12] = test system: Sunflower; assay: Test C preemergence
[13] = test system: lambsquarters (Chenopodium album); assay: Test C preemergence; details: for Plant response rating (0 to 100), Lambsquarters: Rate 250 g/ha, visual evaluation after 12 to 14 days
Method in brief: as §2

[14] = test system: common ragweed (Ambrosia elatior); assay: Test C preemergence; details: for Plant response rating (0 to 100), Ragweed, Common: Rate 250 g/ha, visual evaluation after 12 to 14 days
Method in brief: as §2

[15] = test system: johnsongrass (Sorghum halepense); assay: Test C preemergence; details: for Plant response rating (0 to 100), Johnsongrass: Rate 250 g/ha, visual evaluation after 12 to 14 days
Method in brief: as §2

[16] = test system: giant foxtail (Setaria faberii); assay: Test C preemergence; details: for Plant response rating (0 to 100), Foxtail, Giant: Rate 250 g/ha, visual evaluation after 12 to 14 days
Method in brief: as §2

[17] = test system: Surinam grass (Brachiaria decumbens); assay: Test C preemergence; details: for Plant response rating (0 to 100), Surinam grass: Rate 250 g/ha, visual evaluation after 12 to 14 days
Method in brief: as §2

[18] = test system: corn (Zea mays); assay: Test C preemergence; details: for Plant response rating (0 to 100), Corn: Rate 250 g/ha, visual evaluation after 12 to 14 days
Method in brief: as §2

[19] = test system: cocklebur (Xanthium strumarium); assay: Test C preemergence; details: for Plant response rating (0 to 100), Cocklebur: Rate 250 g/ha, visual evaluation after 12 to 14 days
Method in brief: as §2

[20] = Rate 125 g/ha, scale 0 (no effect) to 100 (complete control)
[21] = Rate 500 g/ha, scale 0 to 100, 0 is no effect, 100 is complete control
[22] = Rate 62 g/ha, scale 0 to 100, 0 no effect, 100 complete control
[23] = Rate 125 g/ha, scale 0 to 100, 0 no effect, 100 complete control
[24] = Preemergence, Rate 500 g/ha, scale 0 to 100
[25] = preemergence, Rate 125 g/ha, scale 0 to 100, 0 no effect, 100 complete control

Structure (SMILES): CC(C)c1ccn(C2SCN(c3cccc(OC(F)(F)F)c3)C2=O)n1 (stereo not shown) [Compound 31]
- Plant response rating (0 to 100), Sunflower [1]: 40
- Plant response rating, Crabgrass [2, 20]: 0
- Plant response rating, Crabgrass [2, 21]: 40
- Plant response rating, Wild Oat [3, 20]: 0
- Plant response rating, Wild Oat [3, 21]: 0
- Plant response rating, Lambsquarters [4, 20]: 70
- Plant response rating, Lambsquarters [4, 21]: 80
- Plant response rating, Cocklebur [5, 20]: 60
- Plant response rating, Cocklebur [5, 21]: 70
- Plant response rating, Nightshade [6, 22]: 80
- Plant response rating, Nightshade [6, 23]: 90
- Plant response rating, Nightshade ([6]; Rate 500 g/ha, scale 0 to 100): 100
- Plant response rating, Pigweed [7, 24]: 90
- Plant response rating, Pigweed [7, 22]: 30
- Plant response rating (0 to 100), Pigweed ([7]; preemergence): 80
- Plant response rating, Pigweed [7, 25]: 100
- Plant response rating, Cupgrass, Woolly [8, 24]: 100
- Plant response rating, Cupgrass, Woolly [8, 22]: 50
- Plant response rating (0 to 100), Cupgrass, Woolly ([8]; preemergence): 90
- Plant response rating, Cupgrass, Woolly [8, 25]: 60
- Plant response rating, Bermudagrass [9, 24]: 100
- Plant response rating, Bermudagrass [9, 22]: 90
- Plant response rating (0 to 100 where 0 is no effect and 100 is complete control), Bermudagrass ([9]; preemergence): 100
- Plant response rating, Bermudagrass [9, 25]: 100
- Plant response rating, Soybean [10, 24]: 0
- Plant response rating, Soybean [10, 22]: 0
- Plant response rating (0 to 100), Soybean ([10]; preemergence): 0
- Plant response rating, Soybean [10, 25]: 0
- Plant response rating, Velvetleaf [11, 24]: 30
- Plant response rating, Velvetleaf [11, 22]: 0
- Plant response rating (0 to 100), Velvetleaf ([11]; preemergence): 30
- Plant response rating, Velvetleaf [11, 25]: 0
- Plant response rating, Sunflower [12, 22]: 20
- Plant response rating, Sunflower ([12]; Rate 500 g/ha, scale 0 to 100): 40
- Plant response rating, Lambsquarters [13, 24]: 100
- Plant response rating, Lambsquarters [13, 22]: 100
- Plant response rating (0 to 100), Lambsquarters ([13]; preemergence): 100
- Plant response rating, Lambsquarters [13, 25]: 100
- Plant response rating, Ragweed, Common [14, 24]: 100
- Plant response rating, Ragweed, Common [14, 22]: 30
- Plant response rating (0 to 100), Ragweed, Common ([14]; preemergence): 90
- Plant response rating, Ragweed, Common [14, 25]: 90
- Plant response rating, Johnsongrass [15, 24]: 100
- Plant response rating, Johnsongrass [15, 22]: 30
- Plant response rating (0 to 100), Johnsongrass ([15]; preemergence): 90
- Plant response rating, Johnsongrass [15, 25]: 60
- Plant response rating, Foxtail, Giant [16, 24]: 100
- Plant response rating, Foxtail, Giant [16, 22]: 40
- Plant response rating (0 to 100), Foxtail, Giant ([16]; preemergence): 60
- Plant response rating, Foxtail, Giant [16, 25]: 50
- Plant response rating, Surinam grass [17, 24]: 70
- Plant response rating, Surinam grass [17, 22]: 50
- Plant response rating (0 to 100), Surinam grass ([17]; preemergence): 60
- Plant response rating, Surinam grass [17, 25]: 50
- Plant response rating, Corn [18, 24]: 60
- Plant response rating, Corn [18, 22]: 40
- Plant response rating (0 to 100), Corn ([18]; preemergence): 40
- Plant response rating, Corn [18, 25]: 40
- Plant response rating, Cocklebur [19, 24]: 30
- Plant response rating, Cocklebur [19, 22]: 0
- Plant response rating (0 to 100), Cocklebur ([19]; preemergence): 30
- Plant response rating, Cocklebur [19, 25]: 0

Structure (SMILES): CC(C)(C)c1ccn(C2SCN(c3cccc(OC(F)(F)F)c3)C2=O)n1 (stereo not shown) [Compound 30]
- Plant response rating (0 to 100), Sunflower [1]: 80
- Plant response rating, Crabgrass [2, 20]: 50
- Plant response rating, Crabgrass [2, 21]: 100
- Plant response rating, Wild Oat [3, 20]: 0
- Plant response rating, Wild Oat [3, 21]: 0
- Plant response rating, Lambsquarters [4, 20]: 90
- Plant response rating, Lambsquarters [4, 21]: 90
- Plant response rating, Cocklebur [5, 20]: 70
- Plant response rating, Cocklebur [5, 21]: 70
- Plant response rating, Nightshade [6, 22]: 80
- Plant response rating, Nightshade [6, 23]: 90
- Plant response rating, Nightshade ([6]; Rate 500 g/ha, scale 0 to 100): 100
- Plant response rating, Pigweed [7, 24]: 100
- Plant response rating, Pigweed [7, 22]: 90
- Plant response rating (0 to 100), Pigweed ([7]; preemergence): 90
- Plant response rating, Pigweed [7, 25]: 50
- Plant response rating, Cupgrass, Woolly [8, 24]: 100
- Plant response rating, Cupgrass, Woolly [8, 22]: 70
- Plant response rating (0 to 100), Cupgrass, Woolly ([8]; preemergence): 90
- Plant response rating, Cupgrass, Woolly [8, 25]: 70
- Plant response rating, Bermudagrass [9, 24]: 100
- Plant response rating, Bermudagrass [9, 22]: 100
- Plant response rating (0 to 100 where 0 is no effect and 100 is complete control), Bermudagrass ([9]; preemergence): 100
- Plant response rating, Bermudagrass [9, 25]: 100
- Plant response rating, Soybean [10, 24]: 70
- Plant response rating, Soybean [10, 22]: 30
- Plant response rating (0 to 100), Soybean ([10]; preemergence): 70
- Plant response rating, Soybean [10, 25]: 70
- Plant response rating, Velvetleaf [11, 24]: 30
- Plant response rating, Velvetleaf [11, 22]: 0
- Plant response rating (0 to 100), Velvetleaf ([11]; preemergence): 0
- Plant response rating, Velvetleaf [11, 25]: 0
- Plant response rating, Sunflower [12, 22]: 0
- Plant response rating, Sunflower ([12]; Rate 500 g/ha, scale 0 to 100): 100
- Plant response rating, Lambsquarters [13, 24]: 100
- Plant response rating, Lambsquarters [13, 22]: 100
- Plant response rating (0 to 100), Lambsquarters ([13]; preemergence): 100
- Plant response rating, Lambsquarters [13, 25]: 100
- Plant response rating, Ragweed, Common [14, 24]: 100
- Plant response rating, Ragweed, Common [14, 22]: 0
- Plant response rating (0 to 100), Ragweed, Common ([14]; preemergence): 90
- Plant response rating, Ragweed, Common [14, 25]: 90
- Plant response rating, Johnsongrass [15, 24]: 100
- Plant response rating, Johnsongrass [15, 22]: 30
- Plant response rating (0 to 100), Johnsongrass ([15]; preemergence): 90
- Plant response rating, Johnsongrass [15, 25]: 40
- Plant response rating, Foxtail, Giant [16, 24]: 100
- Plant response rating, Foxtail, Giant [16, 22]: 80
- Plant response rating (0 to 100), Foxtail, Giant ([16]; preemergence): 90
- Plant response rating, Foxtail, Giant [16, 25]: 60
- Plant response rating, Surinam grass [17, 24]: 60
- Plant response rating, Surinam grass [17, 22]: 20
- Plant response rating (0 to 100), Surinam grass ([17]; preemergence): 40
- Plant response rating, Surinam grass [17, 25]: 40
- Plant response rating, Corn [18, 24]: 50
- Plant response rating, Corn [18, 22]: 30
- Plant response rating (0 to 100), Corn ([18]; preemergence): 50
- Plant response rating, Corn [18, 25]: 40
- Plant response rating, Cocklebur [19, 24]: 80
- Plant response rating, Cocklebur [19, 22]: 0
- Plant response rating (0 to 100), Cocklebur ([19]; preemergence): 0
- Plant response rating, Cocklebur [19, 25]: 0
